According to patent US9624170B2, “4-(piperrazin-1-yl)-pyrrolidin-2-one compounds as monoacylglycerol lipase (MAGL) inhibitors” (TAKEDA PHARMACEUTICAL COMPANY LIMITED, priority 2013, dated 2017):

These compounds were tested against T1, human MAGL (His-hMAGL) (Homo sapiens, UniProt Q99685) (assay: Measurement of MAGL inhibitory activity by mass spectrometry). Conditions: 10 μM test compound; substrate 2-arachidonylglycerol, arachidonic acid by RapidFire-mass spectrometry.
T1 construct: made in house; host or cells: Escherichia coli BL21(DE3)
T1 sequence (Q99685 1-303): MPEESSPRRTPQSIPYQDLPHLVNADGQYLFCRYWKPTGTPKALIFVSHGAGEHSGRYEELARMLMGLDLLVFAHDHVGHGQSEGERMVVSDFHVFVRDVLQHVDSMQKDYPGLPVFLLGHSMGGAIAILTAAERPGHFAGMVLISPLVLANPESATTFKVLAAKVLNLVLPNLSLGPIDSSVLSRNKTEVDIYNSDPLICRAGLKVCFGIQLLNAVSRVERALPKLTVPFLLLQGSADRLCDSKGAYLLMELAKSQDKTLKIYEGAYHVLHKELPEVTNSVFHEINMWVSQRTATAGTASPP
Assay type: biochemical
In short: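 His-tagged human MAGL was reacted with 150 μM 2-arachidonylglycerol substrate (stock, added by 5 μL) for 10 min at room temperature, then stopped with formic acid. Arachidonic acid product was quantified by RapidFire–triple-quadrupole MS in negative SRM mode, corrected by arachidonic acid-d8, and converted to percent inhibition.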

| inhibition at 10 µM | SMILES |
| --- | --- |
| 99% | Cc1noc(C)c1-c1cccc(N2CC(N3CCN(C(=O)c4nccs4)CC3)CC2=O)c1 (stereo not shown) [Example 155, 1-(3-(3,5-dimethyl-1,2-oxazol-4-yl)phenyl)-4-(4-(1,3-thiazol-2-ylcarbonyl)piperazin-1-yl)pyrrolidin-2-one] |
| 101% | O=C(c1nccs1)N1CCN(C2CC(=O)N(c3ccc4c(ccn4-c4cnc(C(F)(F)F)cn4)c3)C2)CC1 (stereo not shown) [Example 129, 4-(4-(1,3-thiazol-2-ylcarbonyl)piperazin-1-yl)-1-(1-(5-(trifluoromethyl)pyrazin-2-yl)-1H-indol-5-yl)pyrrolidin-2-one] |
| 102% | Cc1ccc(-c2cccc(N3CC(N4CCN(C(=O)c5nccs5)CC4)CC3=O)c2)cc1 (stereo not shown) [Example 90, 1-(4′-methylbiphenyl-3-yl)-4-(4-(1,3-thiazol-2-ylcarbonyl)piperazin-1-yl)pyrrolidin-2-one] |
| 100% | O=C(c1nccs1)N1CCN(C2CC(=O)N(c3cccc(-c4ccccc4)n3)C2)CC1 (stereo not shown) [Example 140, 1-(6-phenylpyridin-2-yl)-4-(4-(1,3-thiazol-2-ylcarbonyl)piperazin-1-yl)pyrrolidin-2-one] |

Same assay, conditions: MAGL inhibitory rate, test compound 10 μM, His-hMAGL, substrate 2-arachidonylglycerol, RapidFire-mass spectrometry

| SMILES | inhibition at 10 µM |
| --- | --- |
| O=C(c1nccs1)N1CCN(C2CC(=O)N(c3ccc4c(c3)CCN4C(=O)Cc3cccc(Cl)c3)C2)CC1 (stereo not shown) [Example 394, 1-(1-((3-Chlorophenyl)acetyl)-2,3-dihydro-1H-indol-5-yl)-4-(4-(1,3-thiazol-2-ylcarbonyl)piperazin-1-yl)pyrrolidin-2-one] | 98% |
| O=C1Cc2c(-c3cccc(N4CC(N5CCN(C(=O)c6nccs6)CC5)CC4=O)c3)ccnc2N1 (stereo not shown) [Example 348, 4-(3-(2-oxo-4-(4-(1,3-thiazol-2-ylcarbonyl)piperazin-1-yl)pyrrolidin-1-yl)phenyl)-1,3-dihydro-2H-pyrrolo[2,3-b]pyridin-2-one] | 99% |
| Cc1ccccc1-c1cccc(N2CC(N3CCN(C(=O)c4cscn4)CC3)CC2=O)c1 (stereo not shown) [Example 220, 1-(2′-methylbiphenyl-3-yl)-4-(4-(1,3-thiazol-4-ylcarbonyl)piperazin-1-yl)pyrrolidin-2-one] | 103% |
| CC(C)(C)OC(=O)N1CCc2cc(N3CC(N4CCN(c5ncccn5)CC4)CC3=O)ccc21 (stereo not shown) [Example 389, tert-butyl 5-(2-oxo-4-(4-(pyrimidin-2-yl)piperazin-1-yl)pyrrolidin-1-yl)indoline-1-carboxylate] | 98% |
| C[C@H]1CN(C2CC(=O)N(c3ccc4c(ccn4-c4ccc(F)cc4)c3)C2)CCN1C(=O)c1nccs1 (stereo partly drawn) [Example 363, 1-(1-(4-fluorophenyl)-1H-indol-5-yl)-4-((3S)-3-methyl-4-(1,3-thiazol-2-ylcarbonyl)piperazin-1-yl)pyrrolidin-2-one] | 96% |
| COc1nccc(C)c1-c1cccc(N2CC(N3CCN(C(=O)c4nccs4)CC3)CC2=O)c1 (stereo not shown) [Example 339, 1-(3-(2-methoxy-4-methylpyridin-3-yl)phenyl)-4-(4-(1,3-thiazol-2-ylcarbonyl)piperazin-1-yl)pyrrolidin-2-one] | 100% |

The next lines start with the values.

| inhibition at 10 µM | SMILES |
| --- | --- |
| 103% | O=C(c1nccs1)N1CCN(C2CC(=O)N(c3cccc(-c4cccc(Cl)c4Cl)c3)C2)CC1 (stereo not shown) [Example 293, 1-(2′,3′-dichlorophenyl-3-yl)-4-(4-(1,3-thiazol-2-ylcarbonyl)piperazin-1-yl)pyrrolidin-2-one] |
| 97% | Cc1ccc(-c2cccc(N3CC(N4CCN(C(=O)c5nccs5)CC4)CC3=O)c2)c(C)n1 (stereo not shown) [Example 368, 1-(3-(2,6-dimethylpyridin-3-yl)phenyl)-4-(4-(1,3-thiazol-2-ylcarbonyl)piperazin-1-yl)pyrrolidin-2-one] |
| 102% | Cc1ccncc1-c1cccc(N2CC(N3CCN(C(=O)c4nccs4)CC3)CC2=O)c1 (stereo not shown) [Example 202, 1-(3-(4-methylpyridin-3-yl)phenyl)-4-(4-(1,3-thiazol-2-ylcarbonyl)piperazin-1-yl)pyrrolidin-2-one] |
